Reference: PubChem BioAssay AID1259407 (Chemical Carcinogenesis Research Information System (CCRIS), 2018)
Active and inactive are the calls of the source. How the calls were made is not given here.

Tested on: CCRIS mutagenicity, Ames/micronucleus/aberration tests
Assay: CCRIS mutagenicity studies
[1] = Test System: AMES SALMONELLA TYPHIMURIUM, Strain/Indicator: TA98, Metabolic Activation: NONE, Method: PREINCUBATION
[2] = Test System: AMES SALMONELLA TYPHIMURIUM, Strain/Indicator: TA98, Metabolic Activation: NONE, Method: STANDARD PLATE
[3] = Test System: AMES SALMONELLA TYPHIMURIUM, Strain/Indicator: TA100, Metabolic Activation: NONE, Method: PREINCUBATION
[4] = Test System: AMES SALMONELLA TYPHIMURIUM, Strain/Indicator: TA100, Metabolic Activation: NONE, Method: STANDARD PLATE

## Cc1ccc(O)c(N)c1
Test System: AMES SALMONELLA TYPHIMURIUM, Strain/Indicator: TA97, Metabolic Activation: HAMSTER, LIVER, S-9, AROCLOR 1254 (10%), Method: PREINCUBATION
  mutagenic call: inactive; negative
Test System: AMES SALMONELLA TYPHIMURIUM, Strain/Indicator: TA97, Metabolic Activation: NONE, Method: PREINCUBATION
  mutagenic call: active; positive
Test System: AMES SALMONELLA TYPHIMURIUM, Strain/Indicator: TA97, Metabolic Activation: RAT, LIVER, S-9, AROCLOR 1254 (10%), Method: PREINCUBATION
  mutagenic call: inactive; negative
Test System: AMES SALMONELLA TYPHIMURIUM, Strain/Indicator: TA98, Metabolic Activation: HAMSTER LIVER S-9, AROCLOR 1254, Method: STANDARD PLATE
  mutagenic call: inactive; negative
Test System: AMES SALMONELLA TYPHIMURIUM, Strain/Indicator: TA98, Metabolic Activation: HAMSTER, LIVER, S-9, AROCLOR 1254 (10%), Method: PREINCUBATION
  mutagenic call: inactive; negative
[1]
  mutagenic call: inactive; negative
[2]
  mutagenic call: inactive; negative
Test System: AMES SALMONELLA TYPHIMURIUM, Strain/Indicator: TA98, Metabolic Activation: RAT LIVER S-9, AROCLOR 1254, Method: STANDARD PLATE
  mutagenic call: inactive; negative
Test System: AMES SALMONELLA TYPHIMURIUM, Strain/Indicator: TA98, Metabolic Activation: RAT, LIVER, S-9, AROCLOR 1254 (10%), Method: PREINCUBATION
  mutagenic call: inactive; negative
Test System: AMES SALMONELLA TYPHIMURIUM, Strain/Indicator: TA100, Metabolic Activation: HAMSTER LIVER S-9, AROCLOR 1254, Method: STANDARD PLATE
  mutagenic call: inactive; negative
Test System: AMES SALMONELLA TYPHIMURIUM, Strain/Indicator: TA100, Metabolic Activation: HAMSTER, LIVER, S-9, AROCLOR 1254 (10%), Method: PREINCUBATION
  mutagenic call: active; positive
[3]
  mutagenic call: active; positive
[4]
  mutagenic call: inactive; negative
Test System: AMES SALMONELLA TYPHIMURIUM, Strain/Indicator: TA100, Metabolic Activation: RAT LIVER S-9, AROCLOR 1254, Method: STANDARD PLATE
  mutagenic call: inactive; negative
Test System: AMES SALMONELLA TYPHIMURIUM, Strain/Indicator: TA100, Metabolic Activation: RAT, LIVER, S-9, AROCLOR 1254 (10%), Method: PREINCUBATION
  mutagenic call: active; positive
Test System: AMES SALMONELLA TYPHIMURIUM, Strain/Indicator: TA1535, Metabolic Activation: HAMSTER LIVER S-9, AROCLOR 1254, Method: STANDARD PLATE
  mutagenic call: inactive; negative
Test System: AMES SALMONELLA TYPHIMURIUM, Strain/Indicator: TA1535, Metabolic Activation: HAMSTER, LIVER, S-9, AROCLOR 1254 (10%), Method: PREINCUBATION
  mutagenic call: inactive; negative
Test System: AMES SALMONELLA TYPHIMURIUM, Strain/Indicator: TA1535, Metabolic Activation: NONE, Method: PREINCUBATION
  mutagenic call: inactive; negative
Test System: AMES SALMONELLA TYPHIMURIUM, Strain/Indicator: TA1535, Metabolic Activation: NONE, Method: STANDARD PLATE
  mutagenic call: inactive; negative
Test System: AMES SALMONELLA TYPHIMURIUM, Strain/Indicator: TA1535, Metabolic Activation: RAT LIVER S-9, AROCLOR 1254, Method: STANDARD PLATE
  mutagenic call: inactive; negative
Test System: AMES SALMONELLA TYPHIMURIUM, Strain/Indicator: TA1535, Metabolic Activation: RAT, LIVER, S-9, AROCLOR 1254 (10%), Method: PREINCUBATION
  mutagenic call: inactive; negative
Test System: AMES SALMONELLA TYPHIMURIUM, Strain/Indicator: TA1537, Metabolic Activation: HAMSTER LIVER S-9, AROCLOR 1254, Method: STANDARD PLATE
  mutagenic call: inactive; negative
Test System: AMES SALMONELLA TYPHIMURIUM, Strain/Indicator: TA1537, Metabolic Activation: NONE, Method: STANDARD PLATE
  mutagenic call: inactive; negative
Test System: AMES SALMONELLA TYPHIMURIUM, Strain/Indicator: TA1537, Metabolic Activation: RAT LIVER S-9, AROCLOR 1254, Method: STANDARD PLATE
  mutagenic call: inactive; negative
Test System: AMES SALMONELLA TYPHIMURIUM, Strain/Indicator: TA1538, Metabolic Activation: HAMSTER LIVER S-9, AROCLOR 1254, Method: STANDARD PLATE
  mutagenic call: inactive; negative
Test System: AMES SALMONELLA TYPHIMURIUM, Strain/Indicator: TA1538, Metabolic Activation: NONE, Method: STANDARD PLATE
  mutagenic call: inactive; negative
Test System: AMES SALMONELLA TYPHIMURIUM, Strain/Indicator: TA1538, Metabolic Activation: RAT LIVER S-9, AROCLOR 1254, Method: STANDARD PLATE
  mutagenic call: inactive; negative
Test System: MOUSE LYMPHOMA, Strain/Indicator: L5178Y (TK+/TK-), Metabolic Activation: NONE, Method: SUSPENSION/PLATE
  mutagenic call: active; positive. reevaluation of results: positive
Test System: MOUSE LYMPHOMA, Strain/Indicator: L5178Y (TK+/TK-), Metabolic Activation: RAT, LIVER, S-9, AROCLOR 1254, Method: SUSPENSION/PLATE
  mutagenic call: active; positive. reevaluation of results: positive

## CCCCCC(=O)CC
Test System: CHINESE HAMSTER V-79, Strain/Indicator: V-79 (HPRT)/6-THIOGUANINE, Metabolic Activation: NONE, Method: STANDARD PLATE
  mutagenic call: inactive; negative
Test System: CHINESE HAMSTER V-79, Strain/Indicator: V-79 (HPRT)/6-THIOGUANINE, Metabolic Activation: RAT LIVER S-9, Method: STANDARD PLATE
  mutagenic call: inactive; negative

## O=C(OCc1ccccc1[N+](=O)[O-])c1ccccc1
[1]
  mutagenic call: inactive; negative
[3]
  mutagenic call: inactive; negative
Test System: AMES SALMONELLA TYPHIMURIUM, Strain/Indicator: TA100, Metabolic Activation: RAT, LIVER, S-9, AROCLOR 1254, Method: PREINCUBATION
  mutagenic call: inactive; negative

## COCCCN(N=O)C(N)=O
Test System: E. COLI B, Strain/Indicator: H/R30R, Metabolic Activation: NONE
  mutagenic call: active; positive
Test System: E. COLI B, Strain/Indicator: HS30R, Metabolic Activation: NONE
  mutagenic call: active; positive

## O=[N+]([O-])c1c(Cl)cc2c(c1Cl)Oc1cc(Cl)c(Cl)cc1O2
[2]
  mutagenic call: inactive; negative
Test System: AMES SALMONELLA TYPHIMURIUM, Strain/Indicator: TA98, Metabolic Activation: RAT, LIVER, S-9, AROCLOR, Method: STANDARD PLATE
  mutagenic call: inactive; negative
[4]
  mutagenic call: inactive; negative
Test System: AMES SALMONELLA TYPHIMURIUM, Strain/Indicator: TA100, Metabolic Activation: RAT, LIVER, S-9, AROCLOR, Method: STANDARD PLATE
  mutagenic call: inactive; negative

## CN1CCN(c2ccc3nc(-c4ccc5nc(-c6ccc(O)cc6)[nH]c5c4)[nH]c3c2)CC1
[2]
  mutagenic call: inactive; negative
[4]
  mutagenic call: inactive; negative
Test System: AMES SALMONELLA TYPHIMURIUM, Strain/Indicator: TA102, Metabolic Activation: NONE, Method: STANDARD PLATE
  mutagenic call: inactive; negative
